Data reported in patent publication US20050272677A1, “Delivery of a substance to a pre-determined site” (priority 2002, published 2005).
Where two headings read alike, the source gives them in different places.

Assays:
[1] = Release of quinolines from DBC gels by UV-Vis spectroscopy; format: physicochemical; settings: into 1 mL PBS pH 7.4, initial 0.001M
Text: Entrapment of 8-aminoquinoline and 2-hydroxyquinoline (FIG. 61) was achieved by adding a PBS (phosphate-buffered saline) pH 7.4 solution of the quinoline of interest to X mg of DBC (dibenzoyl cystine); X=2, 3.5, 5 or 10, depending on the weight percentage (wt %) of gelator desired. The sample was then heated in a closed vial until complete dissolution of DBC was observed and subsequently allowed to cool to room temperature where gelation of the sample and, thus, entrapment of the quinolines in the gel occured.
After 24 hours, percentages of 8-aminoquinoline and 2-hydroxyquinoline released from DBC gels of different weight percentages into 1mL of PBS solution at pH 7.4 in contact with the gel, were measured by UV-Vis spectroscopy and are reported in Table J. The initial quinoline concentration in the gel was 0.001M. The error on each percentage is ±4%.

MscL = MscL (Escherichia coli, UniProt P0A742, G22C); format: biochemical, E. coli; design: made in house; host or cells: E. coli PB104; settings: G22C in DOPC:DOPS liposomes; 2.5 mM MTSEA, 10 mM MTSES
Experimental: Results Overexpression and Purification of the MscL Channel Protein
Samples were prepared and calcein efflux was monitored as described elsewhere in Example 1.
300 μl of detergent-treated liposomes were gently mixed with 240 μl of 0.25 mg/ml purified MscL-mutant G22C in elution buffer containing 0.2% Triton X-100. The mixture was incubated at 60° C. for 45 minutes, followed by the addition of an equal volume (540 μl) of calcein-loading buffer, containing 200 mM calcein, 25 mM Tris, 1 mM EDTA, pH 8.0. After addition of 20 mg of Triton X-100-absorbing Bio-Beads SM-2, the mixture was gently agitated for one hour at room temperature. Subsequently, 80 mg Bio-Beads were added and incubated at 4° C. overnight under mild agitation. Samples were prepared for calcein efflux assay as described elsewhere.

[2] = In vivo delivery of luciferase DNA complexed with Sunfish amphiphiles; design: species or system mouse; settings: for gene expression (Luciferase) after intravenous injection of complexed DNA: 24 hours, efficiency order SF-46>SF-36>SF-6>SF-30>SF-63
Experimental: Sunfish (SF) amphiphiles were tested and compared to DOTAP, a commercially available amphiphile (Avanti Polar Lipids). The used plasmid DNA codes for Luciferase, which is expressed upon transfection. Luciferase activity represents the efficiency of transfection. Liposomes were prepared by drying the Sunfish amphiphiles or DOTAP in glass tubes under a nitrogen flow followed by being under vacuum for one hour. The lipid film was resuspended in 20% sucrose by mixing and warming up for five minutes to 60° C. in a water bath. The liposomal suspension was then sonicated for three minutes. For lipoplexes formation, plasmid DNA (30 μg/mouse) diluted in 20% sucrose was added to the liposomes (450 nmol/mouse) under mixing. The lipoplexes were allowed to rest at room temperature for […] and were intravenously injected (150 μl) in male BALB/c mice. Organs (lungs, heart, liver, spleen and kidneys) were collected 24 hours after injection for analysis. Luciferase activity was measured in homogenates of the different organs and related to a standard curve obtained with purified recombinant Luciferase.

[3] = pH as stimulus for gel-to-sol and sol-to-gel transitions; format: physicochemical
Text: Addition of base to a gel of 1 led to a decrease in melting temperature of the gel. Above pH>4.06, gelation was no longer observed (reversible process; see FIG. 50).
Compound 15 can gelate water and undergoes a sol-to-gel transition around pH=4.93 at room temperature (for a 0.5 wt % gel).

[4] = Gelation experiment (gel formation in solvents); format: physicochemical
Experimental: To obtain a gel or to thicken the solvent, the compound is mixed with the required solvent or a mixture of solvents in an amount between 0.01 and 50 wt. %, based on the weight of the composition. Typically, the dissolution of the components will be performed by heating (in some cases it may be helpful to homogenize the components, e.g., vortex) them together at temperatures of 20° C. to 200° C., preferably 50° C. to 150° C. Cooling these hot solutions to a preferred temperature in the range of −20° C. to 100° C., preferably 4° C. to 100° C. affords the gel or thickened solvent. […] In an alternative embodiment, the gelling agent is first dissolved in a polar or apolar solvent followed by the addition of another solvent or solvent mixture, thereby causing gelation to take place.
It will be understood that the use of the present gelling agents or thickeners to prepare a gel or to thicken a composition is also encompassed by the invention. As is well-known, gelling behavior of compounds or compositions is highly unpredictable. […] Preferably, the gelling phenomenon is thermoreversible.
In a typical gelation experiment, a carefully weighed amount of the dithienylcyclopentene derivative under investigation and 1 ml of the solvent are placed in a test tube, which is sealed and then heated until the compound is dissolved. The solution is allowed to cool to room temperature. […] The gelation process could be followed by UV-vis and CD spectroscopy as depicted in FIG. 58. At low concentrations (0.35 mM), compound D is dissolved in toluene. […] Increasing the concentration to 1.8 mM causes gelation of the solvent, which is accompanied by a change of the UV-visible spectrum, together with the appearance of a strong CD signal at 323 nm (FIG. 58, panels (a) and (c)). Similar changes in the UV-vis and CD spectrum are observed upon gelation of the 1.8 mM solution of D in toluene by cooling to a temperature below the sol-gel phase transition (from here on, referred to as gel(o)). From a plot of the increase of the CD signal versus the temperature, the sol-gel phase transition temperature of gel(o) was determined to be 29° C. for a 1.8 mM solution of D in toluene.

[5] = Gelation in the presence of surfactants and polymeric micelles; format: physicochemical; design: key: g = gel; i = insoluble; p = precipitate; sol = soluble
[6] = as above; format: physicochemical; design: key: G = gel; C = crystalline; G^a: ^a= not stable

Chain of MscL (P0A742 whole entry G22C): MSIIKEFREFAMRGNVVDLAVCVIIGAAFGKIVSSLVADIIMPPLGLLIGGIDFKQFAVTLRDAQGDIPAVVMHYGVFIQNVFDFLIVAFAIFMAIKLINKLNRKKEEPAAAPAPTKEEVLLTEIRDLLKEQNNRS

For `Nc1cccc2cccnc12` [8-aminoquinoline], the “percentage released from DBC gel after 24 hours” value (from here on “percentage released from DBC gel”) ([1]; DBC 0.35 wt %) was 15%, the “percentage released from DBC gel” value ([1]; DBC 0.5 wt %) was 12% and the “percentage released from DBC gel” value ([1]; DBC 1.0 wt %) was 10%.
With “sodium (2-sulfonatoethyl)methane thiosulfonate [MTSES, reference compound]” the “calcein release upon addition of MTS compound, versus MTSET” value (MscL) was “the kinetics of release are significantly slower”.
In the case of `CCCCCCCCCCCCCCCC[n+]1ccc(CCCCCCCCCCCCC)cc1.[Cl-]` [SF-36, 1-hexadecyl-4-tridecyl-pyridinium Chloride], the “gene expression (Luciferase) after intravenous injection of complexed DNA” value (shortened to “gene expression (Luciferase)”) [2] is reported as “resulted in gene expression in the lungs”.
In the case of `CSCC[C@H](NC(=O)[C@H]1C[C@@H](C(=O)N[C@@H](CCSC)C(=O)NCCc2c[nH]cn2)C[C@@H](C(=O)N[C@@H](CCSC)C(=O)NCCc2c[nH]cn2)C1)C(=O)NCCc1c[nH]cn1` [gelator 15, CHexAmMetHista], the “pH of sol-to-gel transition” value [3] is reported as ~4.93, the solvents gelated ([4]; listed as 15) is reported as “water” and the solvents gelated ([4]; listed as CHex-Am-Met-Hista) is reported as “water and lower alcohols”.
With CHexAmPheGlyOH [gelator 3] the “effect of sufficient amounts of base on the gel” value (from here on “effect”) [3] was “causes dissolution of these gels”.
In the case of “2-aminoethyl methanethiosulfonate [MTSEA, reference compound]”, the “calcein release upon addition of MTS compound, versus MTSET” value (MscL) is reported as “the kinetics of release are significantly slower”.
For `Oc1ccc2ccccc2n1` [2-hydroxyquinoline], the “percentage released from DBC gel” value ([1]; DBC 0.35 wt %) was 38%, the “percentage released from DBC gel” value ([1]; DBC 0.5 wt %) was 37% and the “percentage released from DBC gel” value ([1]; DBC 1.0 wt %) was 36%.
In the case of `CSCC[C@H](NC(=O)[C@H]1C[C@@H](C(=O)N[C@@H](CCSC)C(=O)O)C[C@@H](C(=O)N[C@@H](CCSC)C(=O)O)C1)C(=O)O` [gelator 1, CHexAmMetOH], the “pH above which gelation was no longer observed” value ([3]; addition of base, reversible) is reported as 4.06, the Gelation properties ([5]; Pluronic P 105, 5 mg · ml^−1) is reported as “p” and the Gelation properties ([5]; Pluronic P 105, 5 mg · ml^−1, * pH reversible gelation) is reported as “g”. The Gelation properties ([5]; Pluronic P 105, 5 mg · ml^−1, ** pH reversible then thermoreversible gelation) was “p”, the Gelation properties ([5]; Pluronic P 105, 100 mg · ml^−1) was “p” and the Gelation properties ([5]; Pluronic P 105, 100 mg · ml^−1, * pH reversible gelation) was “g”. The Gelation properties ([5]; Pluronic P 105, 100 mg · ml^−1, ** pH reversible then thermoreversible gelation) was “p”, the Gelation properties ([6]; CTAB < CMC, * pH reversible gelation) was “C” and the Gelation properties ([6]; CTAB < CMC, ** pH reversible then thermoreversible gelation) was “C”. For the same compound, the Gelation properties ([6]; CTAB > CMC, * pH reversible gelation) was “C”, the Gelation properties ([6]; CTAB > CMC, ** pH reversible then thermoreversible gelation) was “C” and the Gelation properties ([6]; Lactose der. < CMC, * pH reversible gelation) was “G”. For the same compound, the Gelation properties ([6]; Lactose der. < CMC, ** pH reversible then thermoreversible gelation) was “G”, the Gelation properties ([6]; Lactose der. > CMC, * pH reversible gelation) was “G” and the Gelation properties ([6]; Lactose der. > CMC, ** pH reversible then thermoreversible gelation) was “G”. For the same compound, the Gelation properties ([6]; Nonionic (Lactose der.) < CMC) was “G”, the Gelation properties ([6]; Nonionic (Lactose der.) > CMC) was “G” and the Gelation properties ([6]; SDS < CMC, * pH reversible gelation) was “G”. For the same compound, the Gelation properties ([6]; SDS < CMC, ** pH reversible then thermoreversible gelation) was “G”, the Gelation properties ([6]; SDS > CMC, * pH reversible gelation) was “G” and the Gelation properties ([6]; SDS > CMC, ** pH reversible then thermoreversible gelation) was “G”. For the same compound, the Gelation properties ([6]; anionic (SDS) < CMC) was “G”, the Gelation properties ([6]; anionic (SDS) > CMC) was “G” and the Gelation properties ([6]; cationic (CTAB) < CMC) was “C”. The Gelation properties ([6]; cationic (CTAB) > CMC) was “C” and the solvents gelated [4] was “water and lower alcohols”.
In the case of `CCCCCCCC/C=C\CCCCCCCC[n+]1ccc(CCCCCCCCCCCCC)cc1.[Cl-]` [SF-30, 1-(9′-cis-octadecenyl)-4-tridecyl-pyridinium Chloride], the “gene expression (Luciferase)” value [2] is reported as “resulted in gene expression in the lungs”.
For `COC(=O)[C@H](CCSC)NC(=O)[C@H]1C[C@@H](C(=O)N[C@@H](CCSC)C(=O)OC)C[C@@H](C(=O)N[C@@H](CCSC)C(=O)OC)C1` [9a, CHexAmMetOMe], the “effect” value [3] was “causes dissolution of these gels” and the solvents gelated [4] was “both organic solvents and water”.
For CHexAmAspOMe [gelator 8], the “effect” value [3] was “causes dissolution of these gels”.
In the case of `CCCCCCCC/C=C\CCCCCCCCCc1cc[n+](CCCCCCCCCCCCCCCCCC)cc1` [SF-46, 1-stearyl-4-(10′-cis-nonadecenyl)-pyridinium Chloride], the “Luciferase activity in the lungs compared to DOTAP” value ([2]; 24 hours after i.v. injection) is reported as “five times higher” and the “gene expression (Luciferase)” value [2] is reported as “resulted in gene expression in the lungs”.
With `CCCCCCCC/C=C\CCCCCCCCCc1cc[n+](CCCCCCCC/C=C\CCCCCCCC)cc1.[Cl-]` [SF-6, 1-(9′-cis-octadecenyl)-4-(10″-cis-nonadecenyl)pyridinium Chloride] the “gene expression (Luciferase)” value [2] was “resulted in gene expression in the lungs”.
With CHexAmMetAmCH2Pyr [gelator 6] the “pH of sol-to-gel transition” value ([3]; room temperature, 0.5 wt % in MeOH:H2O=1:1) was ~4.47, the solvents gelated [4] was “water:alcohol mixtures (1:1)” and the state ([4]; DMSO) was “soluble”. The state ([4]; EtOH) was “soluble”, the state ([4]; H2O/EtOH (1:1), weight % 1.0, 0.5, 0.25) was “gel” and the state ([4]; H2O/EtOH (2:1), weight % 0.16) was “gel”. For the same compound, the state ([4]; H2O/EtOH (4:1), weight % 1.0, 0.5) was “gel (turbid)”, the state ([4]; H2O/MeOH (1:1), weight % 0.5, 0.25) was “gel” and the state ([4]; H2O/MeOH (4:1), weight % 1.0, 0.5) was “gel (turbid)”. The state ([4]; H2O, weight % 0.05) was “insoluble” and the state ([4]; MeOH) was “soluble”.
